Measured values published in patent publication US20170184612A1, “USE OF LEUKOCYTES AND NOVEL BIOMARKERS IN THE DIAGNOSIS, CONFIRMATION, AND TREATMENT OF A NEUROLOGICAL DISORDER” (The Trustees of Columbia University in the City of New York, priority 2014, published 2017).

Columns and labels:
[1] = system: peripheral blood mononuclear cells (PBMC), T cells; assay: ELISpot assay, gamma-interferon release (SFC) after stimulation with a-synuclein epitope pools; type: cell-based, human; details: for Pool +: IFNg, Pool Stimulated, number of donors with a positive response, Donors tested 1
How it was run: (§1)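 Ficoll-isolated PBMC, PD vs age-matched controls, blinded; peptide pools (122 candidates + pS129 epitopes), 22 h, 37 C. Positive pools deconvoluted.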

[2] = system: peripheral blood mononuclear cells (PBMC), T cells; assay: ELISpot assay, IL-5 release (SFC) after stimulation with a-synuclein epitope pools; type: cell-based, human
How it was run: as §1

[3] = Patients Summary, PD patients, of donors tested (peptide)
[4] = Patients Summary, PD patients, single peptide
[5] = number of donors positive to the single peptide, second 'Pool Stimulated' section (from r296), 12 donors tested
[6] = peptide + / donors tested (peptide), second 'Pool Stimulated' section (from r296), 12 donors tested
[7] = single peptide, second 'Pool Stimulated' section (from r296), 12 donors tested
[8] = pool 'Phospho' (phosphorylated peptides)
[9] = Patients Summary, Phospho pool peptides
[10] = Patients Summary, Phospho pool peptides, 10 donors tested
[11] = peptides of pool 'Poshpho', 8 donors tested
[12] = peptides of pool 'Poshpho', 8 donors tested, number of donors positive

3521.0049 (APQEGILEDM; listed as Homo sapiens)
Pool + [1]: 0 | IFNg Peptide + (donors positive to the peptide) [1, 3]: 0 | IFNg Response Frequency [1, 4]: 0% | IFNg Total SFC [1, 4]: 0 SFC | IFNg Peptide + [1, 5]: 0 | IFNg Response Frequency [1, 6]: 0% | IFNg Total SFC [1, 7]: 0 SFC | IL-g Peptide + (donors positive to the peptide) [2, 3]: 0 | IL-g Response Frequency [2, 4]: 0% | IL-g Total SFC [2, 4]: 0 SFC | IL-g Peptide + [2, 5]: 0 | IL-g Response Frequency [2, 6]: 0% | IL-g Total SFC [2, 7]: 0 SFC

3521.0051 (EEGAPQEGIL; listed as Homo sapiens)
Pool + [1]: 1 | IFNg Peptide + (donors positive to the peptide) [1, 3]: 1 | IFNg Avg SFC [1, 4]: 427 SFC | IFNg Response Frequency [1, 4]: 25% | IFNg Total SFC [1, 4]: 427 SFC | IFNg Peptide + [1, 5]: 1 | IFNg Response Frequency [1, 6]: 50% | IFNg Avg SFC [1, 7]: 554 SFC | IFNg Total SFC [1, 7]: 554 SFC | IL-g Peptide + (donors positive to the peptide) [2, 3]: 0 | IL-g Response Frequency [2, 4]: 0% | IL-g Total SFC [2, 4]: 0 SFC | IL-g Peptide + [2, 5]: 1 | IL-g Response Frequency [2, 6]: 50% | IL-g Avg SFC [2, 7]: 1028 SFC | IL-g Total SFC [2, 7]: 1028 SFC

3521.0054 (MPVDPDNEAY; listed as Homo sapiens)
Pool + [1]: 0 | IFNg Peptide + (donors positive to the peptide) [1, 3]: 0 | IFNg Response Frequency [1, 4]: 0% | IFNg Total SFC [1, 4]: 0 SFC | IFNg Peptide + [1, 5]: 0 | IFNg Response Frequency [1, 6]: 0% | IL-g Peptide + (donors positive to the peptide) [2, 3]: 0 | IL-g Response Frequency [2, 4]: 0% | IL-g Total SFC [2, 4]: 0 SFC | IL-g Peptide + [2, 5]: 1 | IL-g Response Frequency [2, 6]: 50% | IL-g Avg SFC [2, 7]: 58 SFC | IL-g Total SFC [2, 7]: 58 SFC

3521.0055 (QEGILEDMPV; listed as Homo sapiens)
Pool + [1]: 0 | IFNg Peptide + (donors positive to the peptide) [1, 3]: 0 | IFNg Response Frequency [1, 4]: 0% | IFNg Total SFC [1, 4]: 0 SFC | IFNg Peptide + [1, 5]: 0 | IFNg Response Frequency [1, 6]: 0% | IL-g Peptide + (donors positive to the peptide) [2, 3]: 0 | IL-g Response Frequency [2, 4]: 0% | IL-g Total SFC [2, 4]: 0 SFC | IL-g Peptide + [2, 5]: 1 | IL-g Response Frequency [2, 6]: 50% | IL-g Avg SFC [2, 7]: 58 SFC | IL-g Total SFC [2, 7]: 58 SFC

3521.0056 (YEMPSEEGYQ; listed as Homo sapiens)
Pool + [1]: 0 | Pool + [1, 8]: 0 | IFNg Peptide + (donors positive to the peptide) [1, 3]: 0 | IFNg Response Frequency [1, 4]: 0% | IFNg Total SFC [1, 4]: 0 SFC | IFNg Response Frequency [1, 9]: 0% | IFNg Total SFC [1, 9]: 0 SFC | IFNg Peptide + (donors positive to the peptide) [1, 10]: 0 | IFNg Peptide + [1, 5]: 0 | IFNg Response Frequency [1, 6]: 0% | IFNg Avg SFC [1, 11]: 100 SFC | IFNg Response Frequency [1, 11]: 13% | IFNg Total SFC [1, 11]: 100 SFC | IFNg Peptide + [1, 12]: 1 | IL-g Peptide + (donors positive to the peptide) [2, 3]: 0 | IL-g Response Frequency [2, 4]: 0% | IL-g Total SFC [2, 4]: 0 SFC | IL-g Response Frequency [2, 9]: 0% | IL-g Total SFC [2, 9]: 0 SFC | IL-g Peptide + (donors positive to the peptide) [2, 10]: 0 | IL-g Peptide + [2, 5]: 1 | IL-g Response Frequency [2, 6]: 50% | IL-g Avg SFC [2, 11]: 167 SFC | IL-g Response Frequency [2, 11]: 13% | IL-g Total SFC [2, 11]: 167 SFC | IL-g Peptide + [2, 12]: 1 | IL-g Avg SFC [2, 7]: 89 SFC | IL-g Total SFC [2, 7]: 89 SFC

3521.0057 (NEEGAPQEGI; listed as Homo sapiens)
Pool + [1]: 0 | IFNg Peptide + (donors positive to the peptide) [1, 3]: 0 | IFNg Response Frequency [1, 4]: 0% | IFNg Total SFC [1, 4]: 0 SFC | IFNg Peptide + [1, 5]: 1 | IFNg Response Frequency [1, 6]: 50% | IFNg Avg SFC [1, 7]: 26.7 SFC | IFNg Total SFC [1, 7]: 26.7 SFC | IL-g Peptide + (donors positive to the peptide) [2, 3]: 0 | IL-g Response Frequency [2, 4]: 0% | IL-g Total SFC [2, 4]: 0 SFC | IL-g Peptide + [2, 5]: 0 | IL-g Response Frequency [2, 6]: 0% | IL-g Total SFC [2, 7]: 0 SFC

3521.0058 (SEEGYQDYEP; listed as Homo sapiens)
Pool + [1]: 0 | Pool + [1, 8]: 1 | IFNg Peptide + (donors positive to the peptide) [1, 3]: 0 | IFNg Response Frequency [1, 4]: 0% | IFNg Total SFC [1, 4]: 0 SFC | IFNg Avg SFC [1, 9]: 107 SFC | IFNg Response Frequency [1, 9]: 20% | IFNg Total SFC [1, 9]: 213 SFC | IFNg Peptide + (donors positive to the peptide) [1, 10]: 1 | IFNg Peptide + [1, 5]: 0 | IFNg Response Frequency [1, 6]: 0% | IFNg Avg SFC [1, 11]: 26.7 SFC | IFNg Response Frequency [1, 11]: 13% | IFNg Total SFC [1, 11]: 26.7 SFC | IFNg Peptide + [1, 12]: 1 | IL-g Peptide + (donors positive to the peptide) [2, 3]: 0 | IL-g Response Frequency [2, 4]: 0% | IL-g Total SFC [2, 4]: 0 SFC | IL-g Avg SFC [2, 9]: 73 SFC | IL-g Response Frequency [2, 9]: 10% | IL-g Total SFC [2, 9]: 73 SFC | IL-g Peptide + (donors positive to the peptide) [2, 10]: 1 | IL-g Peptide + [2, 5]: 1 | IL-g Response Frequency [2, 6]: 50% | IL-g Response Frequency [2, 11]: 0% | IL-g Total SFC [2, 11]: 0 SFC | IL-g Peptide + [2, 12]: 0 | IL-g Avg SFC [2, 7]: 58 SFC | IL-g Total SFC [2, 7]: 58 SFC

3521.0059 (AEAAGKTKEG; listed as Homo sapiens)
Pool + [1]: 1 | IFNg Peptide + (donors positive to the peptide) [1, 3]: 0 | IFNg Response Frequency [1, 4]: 0% | IFNg Total SFC [1, 4]: 0 SFC | IFNg Peptide + [1, 5]: 1 | IFNg Response Frequency [1, 6]: 50% | IFNg Avg SFC [1, 7]: 120 SFC | IFNg Total SFC [1, 7]: 120 SFC | IL-g Peptide + (donors positive to the peptide) [2, 3]: 1 | IL-g Avg SFC [2, 4]: 71 SFC | IL-g Response Frequency [2, 4]: 13% | IL-g Total SFC [2, 4]: 71 SFC | IL-g Peptide + [2, 5]: 0 | IL-g Response Frequency [2, 6]: 0% | IL-g Total SFC [2, 7]: 0 SFC

3521.0061 (AATGFVKKDQ; listed as Homo sapiens)
Pool + [1]: 0 | IFNg Peptide + (donors positive to the peptide) [1, 3]: 0 | IFNg Response Frequency [1, 4]: 0% | IFNg Total SFC [1, 4]: 0 SFC | IFNg Peptide + [1, 5]: 1 | IFNg Response Frequency [1, 6]: 50% | IFNg Avg SFC [1, 7]: 84 SFC | IFNg Total SFC [1, 7]: 84 SFC | IL-g Peptide + (donors positive to the peptide) [2, 3]: 0 | IL-g Response Frequency [2, 4]: 0% | IL-g Total SFC [2, 4]: 0 SFC | IL-g Peptide + [2, 5]: 1 | IL-g Response Frequency [2, 6]: 50% | IL-g Avg SFC [2, 7]: 195 SFC | IL-g Total SFC [2, 7]: 195 SFC

3521.0062 (KTKKGVVHG; listed as Homo sapiens)
Pool + [1]: 0 | IFNg Peptide + (donors positive to the peptide) [1, 3]: 1 | IFNg Avg SFC [1, 4]: 113 SFC | IFNg Response Frequency [1, 4]: 17% | IFNg Total SFC [1, 4]: 113 SFC | IL-g Peptide + (donors positive to the peptide) [2, 3]: 1 | IL-g Avg SFC [2, 4]: 40 SFC | IL-g Response Frequency [2, 4]: 17% | IL-g Total SFC [2, 4]: 40 SFC

3521.0063 (GVVHGVTTV; listed as Homo sapiens)
Pool + [1]: 1 | IFNg Peptide + (donors positive to the peptide) [1, 3]: 1 | IFNg Avg SFC [1, 4]: 143 SFC | IFNg Response Frequency [1, 4]: 50% | IFNg Total SFC [1, 4]: 143 SFC | IFNg Peptide + [1, 5]: 0 | IFNg Response Frequency [1, 6]: 0% | IFNg Total SFC [1, 7]: 0 SFC | IL-g Peptide + (donors positive to the peptide) [2, 3]: 0 | IL-g Response Frequency [2, 4]: 0% | IL-g Total SFC [2, 4]: 0 SFC | IL-g Peptide + [2, 5]: 0 | IL-g Response Frequency [2, 6]: 0% | IL-g Total SFC [2, 7]: 0 SFC
